# Measurements reported in PubChem BioAssay AID2060335 (Molecular Pharmacology Branch, DTP, NCI, 2025).
# Several values for one entry are separate records, joined by “and”; a condition that tells them apart may be missing. Identical values can stand only once.
# Test system: DU-145 multicell spheroids with HUVEC/MSC, viability
# Assay: Anticancer human tumor DU-145 cell line growth inhibition [IpAb];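 note: spheroids exposed to agents for seven days before measurement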;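 for viability, T/C: percent of DMSO vehicle control viability so 100% = untreated level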
# Conditions: for viability, T/C: stronger effect = lower value
# Outline: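 Combinations with ipatasertib or abemaciclib were tested on tumour spheroids holding HUVEC (25%) and MSC (15%) alongside 60% malignant cells. Top concentration was at or near clinical Cmax (10 microM if undefined), descending in half-log steps.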
# [1] = curve of first compound, second compound 0.1 µM
# [2] = curve of first compound, second compound 0.316 µM
# [3] = curve of first compound, second compound 1 µM
# [4] = second compound 0.1 µM, first compound 0.0316 µM
# [5] = second compound 0.1 µM, first compound 0.1 µM
# [6] = second compound 0.1 µM, first compound 0.316 µM
# [7] = second compound 0.1 µM, first compound 1 µM
# [8] = second compound 0.1 µM, first compound 3.16 µM
# [9] = second compound 0.1 µM, first compound 10 µM
# [10] = second compound 0.316 µM, first compound 0.0316 µM
# [11] = second compound 0.316 µM, first compound 0.1 µM
# [12] = second compound 0.316 µM, first compound 0.316 µM
# [13] = second compound 0.316 µM, first compound 1 µM
# [14] = second compound 0.316 µM, first compound 3.16 µM
# [15] = second compound 0.316 µM, first compound 10 µM
# [16] = second compound 1 µM, first compound 0.0316 µM
# [17] = second compound 1 µM, first compound 0.1 µM
# [18] = second compound 1 µM, first compound 0.316 µM
# [19] = second compound 1 µM, first compound 1 µM
# [20] = second compound 1 µM, first compound 3.16 µM
# [21] = second compound 1 µM, first compound 10 µM
# [22] = curve of first compound, second compound 0.01 µM
# [23] = curve of first compound, second compound 0.0316 µM
# [24] = second compound 0.01 µM, first compound 0.0316 µM
# [25] = second compound 0.01 µM, first compound 0.1 µM
# [26] = second compound 0.01 µM, first compound 0.316 µM
# [27] = second compound 0.01 µM, first compound 1 µM
# [28] = second compound 0.01 µM, first compound 3.16 µM
# [29] = second compound 0.01 µM, first compound 10 µM
# [30] = second compound 0.0316 µM, first compound 0.0316 µM
# [31] = second compound 0.0316 µM, first compound 0.1 µM
# [32] = second compound 0.0316 µM, first compound 0.316 µM
# [33] = second compound 0.0316 µM, first compound 1 µM
# [34] = second compound 0.0316 µM, first compound 3.16 µM
# [35] = second compound 0.0316 µM, first compound 10 µM
structure (smiles),measurement,setting,value
CC1(C)CCC(CN2CCN(c3ccc(C(=O)NS(=O)(=O)c4ccc(NCC5CCOCC5)c([N+](=O)[O-])c4)c(Oc4cnc5[nH]ccc5c4)c3)CC2)=C(c2ccc(Cl)cc2)C1 + CC(C)NCC(C(=O)N1CCN(c2ncnc3c2C(C)CC3O)CC1)c1ccc(Cl)cc1,IC50,[1],3450 nM
same,IC50,[2],497 nM
same,IC50,[3],< 31.6 nM
same,IC50,"curve of first compound, second compound 3.16 µM",< 31.6 nM
same,IC50,"curve of first compound, second compound 10 µM",< 31.6 nM
same,"viability, T/C",[4],86.7%
same,"viability, T/C",[5],87.5%
same,"viability, T/C",[6],78.1%
same,"viability, T/C",[7],74.9%
same,"viability, T/C",[8],53.3%
same,"viability, T/C",[9],11.5%
same,"viability, T/C",[10],58.1%
same,"viability, T/C",[11],53.6%
same,"viability, T/C",[12],50.6%
same,"viability, T/C",[13],45.2%
same,"viability, T/C",[14],37%
same,"viability, T/C",[15],8.7%
same,"viability, T/C",[16],30.5%
same,"viability, T/C",[17],29.4%
same,"viability, T/C",[18],30.9%
same,"viability, T/C",[19],28.6%
same,"viability, T/C",[20],27.1%
same,"viability, T/C",[21],10.4%
same,"viability, T/C","second compound 3.16 µM, first compound 0.0316 µM",23.1%
same,"viability, T/C","second compound 3.16 µM, first compound 0.1 µM",20.6%
same,"viability, T/C","second compound 3.16 µM, first compound 0.316 µM",20.4%
same,"viability, T/C","second compound 3.16 µM, first compound 1 µM",19.6%
same,"viability, T/C","second compound 3.16 µM, first compound 3.16 µM",19.9%
same,"viability, T/C","second compound 3.16 µM, first compound 10 µM",5.88%
same,"viability, T/C","second compound 10 µM, first compound 0.0316 µM",19.1%
same,"viability, T/C","second compound 10 µM, first compound 0.1 µM",19.2%
same,"viability, T/C","second compound 10 µM, first compound 0.316 µM",18.4%
same,"viability, T/C","second compound 10 µM, first compound 1 µM",16.9%
same,"viability, T/C","second compound 10 µM, first compound 3.16 µM",15.9%
same,"viability, T/C","second compound 10 µM, first compound 10 µM",5.38%
C=CCn1c(=O)c2cnc(Nc3ccc(N4CCN(C)CC4)cc3)nc2n1-c1cccc(C(C)(C)O)n1 + CCN1CCN(Cc2ccc(Nc3ncc(F)c(-c4cc(F)c5nc(C)n(C(C)C)c5c4)n3)nc2)CC1,IC50,[22],140 nM
same,IC50,[23],88.3 nM
same,IC50,[1],64.3 nM
same,IC50,[2],55.9 nM
same,IC50,[3],96.6 nM
same,"viability, T/C",[24],85.5%
same,"viability, T/C",[25],61.3%
same,"viability, T/C",[26],21.9%
same,"viability, T/C",[27],17%
same,"viability, T/C",[28],10.1%
same,"viability, T/C",[29],9.83%
same,"viability, T/C",[30],75.3%
same,"viability, T/C",[31],47.6%
same,"viability, T/C",[32],21.7%
same,"viability, T/C",[33],16.9%
same,"viability, T/C",[34],10.7%
same,"viability, T/C",[35],8.6%
same,"viability, T/C",[4],69.7%
same,"viability, T/C",[5],37%
same,"viability, T/C",[6],21.9%
same,"viability, T/C",[7],16.1%
same,"viability, T/C",[8],9.64%
same,"viability, T/C",[9],9.46%
same,"viability, T/C",[10],58.7%
same,"viability, T/C",[11],40.9%
same,"viability, T/C",[12],25.2%
same,"viability, T/C",[13],14.9%
same,"viability, T/C",[14],9.9%
same,"viability, T/C",[15],10.9%
same,"viability, T/C",[16],57.3%
same,"viability, T/C",[17],50.5%
same,"viability, T/C",[18],27.1%
same,"viability, T/C",[19],14.2%
same,"viability, T/C",[20],7.82%
same,"viability, T/C",[21],8.53%
C=CC(=O)N1CCN(c2nc(=O)n(-c3c(C)ccnc3C(C)C)c3nc(-c4c(O)cccc4F)c(F)cc23)C(C)C1 (stereo not drawn),"viability, T/C",compound 0.0316 µM,104% and 107%
same,"viability, T/C",compound 0.1 µM,109% and 108%
same,"viability, T/C",compound 0.316 µM,107% and 109%
same,"viability, T/C",compound 1 µM,112% and 113%
same,"viability, T/C",compound 3.16 µM,90.7% and 103%
same,"viability, T/C",compound 10 µM,44.1% and 48.9%
same,IC50,curve of compound,8660 nM and 9820 nM
Cc1nc(NC(=O)N2CCCC2C(N)=O)sc1-c1ccnc(C(C)(C)C(F)(F)F)c1 (stereo not drawn) + CCN1CCN(Cc2ccc(Nc3ncc(F)c(-c4cc(F)c5nc(C)n(C(C)C)c5c4)n3)nc2)CC1,IC50,[22],186 nM
same,IC50,[23],116 nM
same,IC50,[1],97.3 nM
same,IC50,[2],94.1 nM
same,IC50,[3],168 nM
same,"viability, T/C",[24],75.3%
same,"viability, T/C",[25],59.4%
same,"viability, T/C",[26],39.9%
same,"viability, T/C",[27],31.5%
same,"viability, T/C",[28],19.4%
same,"viability, T/C",[29],9.2%
same,"viability, T/C",[30],73.5%
same,"viability, T/C",[31],45.8%
same,"viability, T/C",[32],38%
same,"viability, T/C",[33],29.5%
same,"viability, T/C",[34],19.2%
same,"viability, T/C",[35],8.68%
same,"viability, T/C",[4],67.1%
same,"viability, T/C",[5],49.2%
same,"viability, T/C",[6],33.8%
same,"viability, T/C",[7],28.6%
same,"viability, T/C",[8],20.5%
same,"viability, T/C",[9],11%
same,"viability, T/C",[10],61%
same,"viability, T/C",[11],49.7%
same,"viability, T/C",[12],36.8%
same,"viability, T/C",[13],32.4%
same,"viability, T/C",[14],24.1%
same,"viability, T/C",[15],16%
same,"viability, T/C",[16],58.1%
same,"viability, T/C",[17],55%
same,"viability, T/C",[18],43.8%
same,"viability, T/C",[19],39%
same,"viability, T/C",[20],28.4%
same,"viability, T/C",[21],21.5%
C=CCn1c(=O)c2cnc(Nc3ccc(N4CCN(C)CC4)cc3)nc2n1-c1cccc(C(C)(C)O)n1,"viability, T/C",compound 0.0316 µM,92.5% and 92.3%
same,"viability, T/C",compound 0.1 µM,59.8% and 56.2%
same,"viability, T/C",compound 0.316 µM,23.2% and 29.1%
same,"viability, T/C",compound 1 µM,18.4% and 24.8%
same,"viability, T/C",compound 3.16 µM,11.1% and 15.6%
same,"viability, T/C",compound 10 µM,9.63% and 14.2%
same,IC50,curve of compound,136 nM and 129 nM
CC(C)(C)c1cnc(CSc2cnc(NC(=O)C3CCNCC3)s2)o1 + CCN1CCN(Cc2ccc(Nc3ncc(F)c(-c4cc(F)c5nc(C)n(C(C)C)c5c4)n3)nc2)CC1,IC50,[22],104 nM
same,IC50,[23],82.2 nM
same,IC50,[1],66.6 nM
same,IC50,[2],60.4 nM
same,IC50,[3],34.9 nM
same,"viability, T/C","second compound 0.01 µM, first compound 0.00949 µM",108%
same,"viability, T/C","second compound 0.01 µM, first compound 0.03 µM",98.6%
same,"viability, T/C","second compound 0.01 µM, first compound 0.0949 µM",54%
same,"viability, T/C","second compound 0.01 µM, first compound 0.3 µM",8.61%
same,"viability, T/C","second compound 0.01 µM, first compound 0.949 µM",6.08%
same,"viability, T/C","second compound 0.01 µM, first compound 3 µM",5.15%
same,"viability, T/C","second compound 0.0316 µM, first compound 0.00949 µM",94.3%
same,"viability, T/C","second compound 0.0316 µM, first compound 0.03 µM",88.2%
same,"viability, T/C","second compound 0.0316 µM, first compound 0.0949 µM",44.7%
same,"viability, T/C","second compound 0.0316 µM, first compound 0.3 µM",8.69%
same,"viability, T/C","second compound 0.0316 µM, first compound 0.949 µM",5.54%
same,"viability, T/C","second compound 0.0316 µM, first compound 3 µM",5.3%
same,"viability, T/C","second compound 0.1 µM, first compound 0.00949 µM",87.6%
same,"viability, T/C","second compound 0.1 µM, first compound 0.03 µM",77.4%
same,"viability, T/C","second compound 0.1 µM, first compound 0.0949 µM",38.1%
same,"viability, T/C","second compound 0.1 µM, first compound 0.3 µM",7.33%
same,"viability, T/C","second compound 0.1 µM, first compound 0.949 µM",5.93%
same,"viability, T/C","second compound 0.1 µM, first compound 3 µM",4.44%
same,"viability, T/C","second compound 0.316 µM, first compound 0.00949 µM",77.5%
same,"viability, T/C","second compound 0.316 µM, first compound 0.03 µM",75.4%
same,"viability, T/C","second compound 0.316 µM, first compound 0.0949 µM",33.8%
same,"viability, T/C","second compound 0.316 µM, first compound 0.3 µM",7.83%
same,"viability, T/C","second compound 0.316 µM, first compound 0.949 µM",5.35%
same,"viability, T/C","second compound 0.316 µM, first compound 3 µM",4.86%
same,"viability, T/C","second compound 1 µM, first compound 0.00949 µM",67.8%
same,"viability, T/C","second compound 1 µM, first compound 0.03 µM",55.7%
same,"viability, T/C","second compound 1 µM, first compound 0.0949 µM",12.7%
same,"viability, T/C","second compound 1 µM, first compound 0.3 µM",6.89%
same,"viability, T/C","second compound 1 µM, first compound 0.949 µM",4.71%
same,"viability, T/C","second compound 1 µM, first compound 3 µM",4.63%
CC(C)(C)c1cnc(CSc2cnc(NC(=O)C3CCNCC3)s2)o1,"viability, T/C",compound 0.00949 µM,110% and 106%
same,"viability, T/C",compound 0.03 µM,105% and 110%
same,"viability, T/C",compound 0.0949 µM,71.5% and 59.3%
same,"viability, T/C",compound 0.3 µM,12.9% and 9.3%
same,"viability, T/C",compound 0.949 µM,7.58% and 6.45%
same,"viability, T/C",compound 3 µM,5.4% and 5.44%
same,IC50,curve of compound,145 nM and 117 nM
Cn1cnc2c(F)c(Nc3ccc(Br)cc3Cl)c(C(=O)NOCCO)cc21,"viability, T/C",compound 0.00949 µM,84.1% and 81.8%
same,"viability, T/C",compound 0.03 µM,67.6% and 74.4%
same,"viability, T/C",compound 0.0949 µM,60.8% and 66.5%
same,"viability, T/C",compound 0.3 µM,55.5% and 53.2%
same,"viability, T/C",compound 0.949 µM,48% and 51.1%
same,"viability, T/C",compound 3 µM,42.9% and 37.9%
same,IC50,curve of compound,597 nM and 704 nM
